From PMC6104039 (Nature Communications, 2018)

Tests used:
[1] = target: T1, human CerS2 (Homo sapiens, UniProt Q96G23); experiment: Ceramide synthase assay, NBD-dihydrosphingosine, C24:1-CoA; HEK293 cells expressing human CerS2; assay type: biochemical; settings: inhibitor range 10 nM–100 μM; read-out: IC50 hCerS2
T1 sequence (Q96G23 1-380): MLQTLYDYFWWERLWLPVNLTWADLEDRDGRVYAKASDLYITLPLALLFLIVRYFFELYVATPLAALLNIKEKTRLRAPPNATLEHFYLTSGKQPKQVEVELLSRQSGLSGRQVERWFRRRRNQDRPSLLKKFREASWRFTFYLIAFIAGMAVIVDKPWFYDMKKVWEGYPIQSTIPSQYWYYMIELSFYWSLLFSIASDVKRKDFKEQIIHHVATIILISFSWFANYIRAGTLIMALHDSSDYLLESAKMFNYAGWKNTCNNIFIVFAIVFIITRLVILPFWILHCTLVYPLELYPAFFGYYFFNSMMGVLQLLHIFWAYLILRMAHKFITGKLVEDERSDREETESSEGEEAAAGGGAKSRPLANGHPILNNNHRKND
Procedure: Ceramide synthase assays were carried out using an HPLC-based assay with a fluorescent NBD-dihydrosphingosine substrate. All cell lines used for these assays were originally sourced from ATCC. […] Cells were sonicated in a Diagenode Bioruptor sonicating bath for 5 min, after which cell extracts were cleared by centrifugation at 800 × g for 10 min. Protein concentration in the supernatant was assayed using the bicinchoninic acid (BCA) assay, and the supernatant stored at −80 °C. COS cells were infected with lentiviral constructs expressing murine CerS1, 2, or 5, then homogenised as described above.
The reaction buffer consisted of 20 mM Hepes pH 7.4, 25 mM KCl, 2 mM MgCl2, 0.5 mM dithiothreitol, 0.1% fatty acid free BSA, 10 μM NBD-dihydrosphingosine and 50 μM fatty acid free BSA. C18:0-CoA was used as the fatty acyl substrate for CerS1 and CerS4; C24:1-CoA for CerS2; and C16:0-CoA for CerS5 and CerS6. All reactions were run in triplicate. Test inhibitors were added, after which reactions were started with the addition of 2.5–25 μg lysate protein (optimised depending on the particular CerS isoform being assayed). […] The reaction mixture was transferred to a glass HPLC vial with 300 μL fused glass insert (Thermo Fisher Scientific) and NBD-dihydroceramide reaction products were analysed on a Thermo Scientific Surveyor HPLC connected to a Shimadzu RF-10AXL fluorescent detector (set to gain of 3). […] The gradient started at 20:80 A/B, increasing to 5:95 A/B over 2 min, then to 100% B over 6 min. The gradient was then held at 100% B for 2 min, before re-equilibration to 20:80 A/B for a further 2 min. Peak areas were integrated using Xcalibur software (Thermo Fisher Scientific).

[2] = target: T2, human CerS4 (Homo sapiens, UniProt Q9HA82); experiment: Ceramide synthase assay, NBD-dihydrosphingosine, C18:0-CoA; U251 cells expressing human CerS4; assay type: biochemical; settings: inhibitor range 10 nM–100 μM; read-out: IC50 hCerS4
T2 construct: host or cells: U251
T2 sequence (Q9HA82 1-394): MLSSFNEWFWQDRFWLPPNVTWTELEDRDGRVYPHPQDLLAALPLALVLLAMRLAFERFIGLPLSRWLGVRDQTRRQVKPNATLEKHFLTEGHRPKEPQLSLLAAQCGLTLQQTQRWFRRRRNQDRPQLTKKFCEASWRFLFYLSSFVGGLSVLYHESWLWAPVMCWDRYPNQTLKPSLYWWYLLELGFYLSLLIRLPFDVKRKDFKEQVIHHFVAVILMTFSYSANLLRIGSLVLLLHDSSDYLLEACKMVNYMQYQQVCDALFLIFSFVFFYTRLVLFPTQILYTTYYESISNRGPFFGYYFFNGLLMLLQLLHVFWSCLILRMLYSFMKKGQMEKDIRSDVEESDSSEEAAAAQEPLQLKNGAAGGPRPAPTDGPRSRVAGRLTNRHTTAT
Procedure: Ceramide synthase assays were carried out using an HPLC-based assay with a fluorescent NBD-dihydrosphingosine substrate. All cell lines used for these assays were originally sourced from ATCC. […] Human CerS expression plasmids (pCMV6 plasmids from Origene) were transfected using FuGene-6 transfection reagent, and cells were harvested 24 h after transfection in 20 mM Hepes pH 7.4, 10 mM KCl, 1 mM dithiothreitol, 3 mM β-glycerophosphate, and EDTA-free complete protease inhibitor cocktail (Roche). Cells were sonicated in a Diagenode Bioruptor sonicating bath for 5 min, after which cell extracts were cleared by centrifugation at 800 × g for 10 min. Protein concentration in the supernatant was assayed using the bicinchoninic acid (BCA) assay, and the supernatant stored at −80 °C. COS cells were infected with lentiviral constructs expressing murine CerS1, 2, or 5, then homogenised as described above.
The reaction buffer consisted of 20 mM Hepes pH 7.4, 25 mM KCl, 2 mM MgCl2, 0.5 mM dithiothreitol, 0.1% fatty acid free BSA, 10 μM NBD-dihydrosphingosine and 50 μM fatty acid free BSA. C18:0-CoA was used as the fatty acyl substrate for CerS1 and CerS4; C24:1-CoA for CerS2; and C16:0-CoA for CerS5 and CerS6. All reactions were run in triplicate. Test inhibitors were added, after which reactions were started with the addition of 2.5–25 μg lysate protein (optimised depending on the particular CerS isoform being assayed). Assays were run for 30 min at 37 °C, and stopped with the addition of 200 μL methanol. The reaction mixture was transferred to a glass HPLC vial with 300 μL fused glass insert (Thermo Fisher Scientific) and NBD-dihydroceramide reaction products were analysed on a Thermo Scientific Surveyor HPLC connected to a Shimadzu RF-10AXL fluorescent detector (set to gain of 3). […] Data was acquired over a 12 min chromatography run using: solvent A, 0.2% formic acid, 2 mM ammonium formate in water; solvent B, 0.2% formic acid, 1 mM ammonium formate in methanol. The gradient started at 20:80 A/B, increasing to 5:95 A/B over 2 min, then to 100% B over 6 min. The gradient was then held at 100% B for 2 min, before re-equilibration to 20:80 A/B for a further 2 min. Peak areas were integrated using Xcalibur software (Thermo Fisher Scientific).

SMILES | IC50 [1] [µM] | IC50 [2] [µM]
C[C@@](N)(CO)CCc1ccc(OCc2ccccc2)cc1 [G024, (2S)-2-amino-4-(4′-benzyloxyphenyl)-2-methyl-1-butanol] | 14.5 ± 0.09 | 18 ± 0.12
CCCC[C@@H](C)[C@@H](OC(=O)C[C@@H](CC(=O)O)C(=O)O)[C@H](C[C@@H](C)C[C@H](O)CCCC[C@@H](O)C[C@H](O)[C@H](C)N)OC(=O)C[C@@H](CC(=O)O)C(=O)O [FB1, reference compound] | 0.15 ± 0.08 | 0.92 ± 0.06
CCCCCCCCc1ccc(CCC(N)(CO)CO)cc1 [FTY720, reference compound] | 19.1 ± 0.1 | 26 ± 0.18
C[C@@](N)(CO)CCc1ccc(OCc2ccc(Cl)c(Cl)c2)cc1 [P053, (S)-2-amino-4-(4-(3,4-dichlorobenzyloxy)phenyl)-2-methylbutan-1-ol] | 28.6 ± 0.15 | 17.2 ± 0.09
